From patent US7855205B2, “Pyrimidinyl substituted fused-pyrrolyl compounds useful in treating kinase disorders” (Janssen Pharmaceutica NV, priority 2004, dated 2010)

Tests used:
CDK1:Cyclin-B = target: T1, CDK1:Cyclin-B (Homo sapiens, UniProt P06493); experiment: CDK1 Screening Assay; type: biochemical; settings: 33P-γ-ATP incorporation, 10 μM ATP
T1 construct: purchased New England Biolabs, Beverly, Mass; 6020; host or cells: insect cells
Procedure: (§1) A kinase reaction mixture was prepared containing 50 mM Tris-HCl pH=8, 10 mM MgCl2, 0.1 mM […], 1 mM DTT, 10 μM ATP, 0.025 μM biotinylated histone-HI peptide substrate and […] per well ^33P-γ-ATP (2000-3000 Ci/mmol). 70 μL of the kinase reaction mixture was dispensed into the well of a streptavidin coated FlashPlate™ (Cat. # SMP103, NEN, Boston, Mass.). Then 1 μL of test compound stock in 100% DMSO was added to the wells resulting in a final concentration of 1% DMSO in the reaction with a 100 μL final reaction volume.
(§2) The CDK1:Cyclin-B protein was then diluted in 50 mM Tris-HCl pH=8.0, 0.1% BSA at a concentration of 1 ng per μL and 30 μL (30 ng enzyme per test well) was added to each well to initiate the reaction. The reaction was incubated for one hour at 30° C. At the end of the 1 h incubation, the reaction was terminated by aspirating the mixture from the plate and washing the wells twice with PBS containing 100 mM EDTA. The histone-H1 biotinylated peptide substrate became immobilized on the Flashplate™ and the incorporation of ^33P-γ-ATP was measured by reading the plate on a scintillation counter. Inhibition of the enzymatic activity of CDK1 was measured by observing a reduced amount of ^33P-γ-ATP incorporated into the immobilized peptide.
The CDK1 used was isolated from insect cells expressing both the human CDK1 catalytic subunit and its positive regulatory subunit cyclin B (New England Biolabs, Beverly, Mass., Cat. #6020).
(§3) • VEGF-R2, HER2 and (Biotin)[…]-Amide • RET kinases • CDK1 (Biotin)[…]-Amide • Aurora-A kinase Biotin-[…]-Amide

VEGF-R2 = target: T2, VEGF-R2 (Rattus norvegicus, UniProt O08775); experiment: VEGF-R2 Screening Assay; type: biochemical; settings: 33P-γ-ATP incorporation, 10 μM ATP
T2 construct: polyhistidine (N)
Procedure: as §2, with “Then 1 μL of test compound stock in 100% DMSO was added to the wells resulting in a final concentration of 1% DMSO in the reaction with a 100 μL final reaction volume. The CDK1:Cyclin-B” for “The CDK1:Cyclin-B”, “immobilized peptide. The VEGF-R kinase assay was carried out using the CDK kinase assay procedure except that the enzyme was replaced with the VEGF-R2 fusion protein containing a polyhistidine tag at the N-terminus followed by amino acids 786-1343 of the rat VEGF-R2 kinase domain (GenBank Accession #U93306).” for “immobilized peptide.”

Aurora-A = target: T3, Aurora-A (Mus musculus, UniProt P97477); experiment: Aurora-A Screening Assay; type: biochemical, murine; settings: 33P-γ-ATP incorporation, 10 μM ATP
T3 construct: made in house; host or cells: sf9 insect cells
T3 sequence (P97477 1-395): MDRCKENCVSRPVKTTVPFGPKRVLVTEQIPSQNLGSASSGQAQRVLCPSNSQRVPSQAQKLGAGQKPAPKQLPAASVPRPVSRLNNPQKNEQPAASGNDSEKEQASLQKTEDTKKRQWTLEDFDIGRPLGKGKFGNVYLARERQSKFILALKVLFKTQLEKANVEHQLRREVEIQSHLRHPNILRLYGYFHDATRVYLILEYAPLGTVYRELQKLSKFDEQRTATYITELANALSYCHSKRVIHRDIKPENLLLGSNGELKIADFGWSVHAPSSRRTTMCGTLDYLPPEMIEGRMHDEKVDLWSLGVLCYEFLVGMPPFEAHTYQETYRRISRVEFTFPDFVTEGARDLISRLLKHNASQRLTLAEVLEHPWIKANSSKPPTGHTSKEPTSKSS
Procedure: as §1, §2
The Aurora-A kinase assay was carried out using the CDK kinase assay procedure except that the enzyme was replaced with the full length protein encoding the murine Aurora-A (Accession# GB BC014711) expressed and purified from sf9 insect cells.
as §3

[1] = tested on: HeLa cervical adenocarcinoma; experiment: Inhibition of cell proliferation (14C-thymidine incorporation), HeLa; type: cell-based; settings: Homo sapiens;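 note: HeLa cells in 96-well scintillating plates, compound for 24 h then 24 h more with 14C-thymidine, counting label built into new DNA against DMSO-only control wells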
HCT-116 colon carcinoma = experiment: Inhibition of cell proliferation (14C-thymidine incorporation), HCT-116; type: cell-based; settings: Homo sapiens, HCT-116, HCT116
Procedure: (§4) The ability of a test compound to inhibit the proliferation of cell growth was determined by measuring incorporation of ^14C-labelled thymidine into newly synthesized DNA within the cells. This method was used on cell lines derived from carcinomas originating from several tissues such as HeLa cervical adenocarcinoma (American Type Culture Collection (ATCC), Virginia, Cat. #CCL-2), A375 malignant melanoma (ATCC CRL-1619), HCT-116 colon carcinoma (CCL-247). In this way the effect of a compound on cell growth of cells with many different phenotypes can be determined. Cells were trypsinized and counted and 3000-8000 cells were added to each well of a 96-well CytoStar tissue culture treated scintillating microplate (Amersham #RPNQ0160) in complete medium in a volume of 100 μL. Cells were incubated for 24 hours in complete medium at 37° C. in an atmosphere containing 5% CO2.
(§5) Next, 1 μL of test compound in 100% DMSO was added to the wells of the plate. DMSO only was added to control wells. Cells were incubated for 24 more hours in complete medium at 37° C. in an atmosphere containing 5% CO2. Methyl ^14C-thymidine 56 mCi/mmol (NEN #NEC568 or Amersham #CFA532) was diluted in complete medium and 0.2 uCi/well was added to each well of the CytoStar plate in a volume of 20 μl. The plate was incubated for 24 hours at 37° C. plus 5% CO2 in drug plus ^14C-thymidine. The contents of the plate discarded into a ^14C radioactive waste container by inverting the plate and the plate was washed twice with 200 μL PBS.
(§6) 200 μL of PBS is added to each well. The top of the plate was sealed with a transparent plate sealer and a white plate backing sealer (Packard #6005199) was applied to the bottom of the plate. The degree of methyl ^14C-thymidine incorporation was quantified on a Packard Top Count.

A375 malignant melanoma = experiment: Inhibition of cell proliferation (14C-thymidine incorporation), A375; type: cell-based, human; settings: Homo sapiens, A-375
Procedure: as §4, §5, §6

T2 sequence (O08775 786-1343): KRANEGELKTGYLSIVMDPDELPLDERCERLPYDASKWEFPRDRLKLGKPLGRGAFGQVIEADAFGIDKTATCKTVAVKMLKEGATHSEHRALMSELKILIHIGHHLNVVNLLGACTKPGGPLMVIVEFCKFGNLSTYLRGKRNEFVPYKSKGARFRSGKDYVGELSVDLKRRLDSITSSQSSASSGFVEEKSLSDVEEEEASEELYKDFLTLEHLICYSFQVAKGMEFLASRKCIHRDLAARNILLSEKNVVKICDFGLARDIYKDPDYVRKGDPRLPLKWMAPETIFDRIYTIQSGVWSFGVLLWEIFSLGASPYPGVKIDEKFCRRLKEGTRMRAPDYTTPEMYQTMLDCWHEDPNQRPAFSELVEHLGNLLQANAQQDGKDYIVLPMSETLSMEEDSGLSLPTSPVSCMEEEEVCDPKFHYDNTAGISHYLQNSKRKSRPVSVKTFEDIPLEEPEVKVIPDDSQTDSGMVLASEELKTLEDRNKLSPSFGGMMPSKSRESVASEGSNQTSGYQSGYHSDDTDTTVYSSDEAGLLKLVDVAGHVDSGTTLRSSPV
T1 sequence (P06493 whole entry): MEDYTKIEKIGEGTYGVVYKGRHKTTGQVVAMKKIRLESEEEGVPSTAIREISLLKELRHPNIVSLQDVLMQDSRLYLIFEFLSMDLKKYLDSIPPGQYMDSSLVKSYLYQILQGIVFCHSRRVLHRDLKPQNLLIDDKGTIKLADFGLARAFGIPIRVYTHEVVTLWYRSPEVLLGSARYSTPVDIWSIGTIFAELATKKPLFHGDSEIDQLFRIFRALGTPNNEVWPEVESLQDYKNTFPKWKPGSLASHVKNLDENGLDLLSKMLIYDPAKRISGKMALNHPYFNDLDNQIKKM
T1 sequence (P14635 whole entry partner): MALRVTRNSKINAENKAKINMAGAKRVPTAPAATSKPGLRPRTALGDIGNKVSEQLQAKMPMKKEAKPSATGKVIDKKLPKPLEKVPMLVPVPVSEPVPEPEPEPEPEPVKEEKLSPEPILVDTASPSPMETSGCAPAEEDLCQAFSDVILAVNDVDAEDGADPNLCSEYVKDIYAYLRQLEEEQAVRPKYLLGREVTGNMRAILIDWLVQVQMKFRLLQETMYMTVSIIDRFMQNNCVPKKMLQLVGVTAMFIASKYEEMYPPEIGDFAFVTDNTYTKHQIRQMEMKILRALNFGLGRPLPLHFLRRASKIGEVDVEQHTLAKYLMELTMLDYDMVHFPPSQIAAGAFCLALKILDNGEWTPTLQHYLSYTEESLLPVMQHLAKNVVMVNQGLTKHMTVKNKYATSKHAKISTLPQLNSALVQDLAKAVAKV

| Structure (SMILES) | IC50 (CDK1:Cyclin-B) [µM] | IC50 (VEGF-R2) [µM] | IC50 (Aurora-A) [µM] | IC50 [1] [µM] | IC50 (HCT-116 colon carcinoma) [µM] | IC50 (A375 malignant melanoma) [µM] |
| --- | --- | --- | --- | --- | --- | --- |
| CC(=O)NC1CCN(c2nccc(-c3c[nH]c4ncccc34)n2)CC1 [Cpd 63, N-{1-[4-(1H-pyrrolo[2,3-b]pyridin-3-yl)-pyrimidin-2-yl]-piperidin-4-yl}acetamide] | 2.11 | 10 | 4.19 | 34.7 | 40 | 16.4 |
| CC(=O)N1CCC(Nc2nccc(-c3c[nH]c4ncccc34)n2)CC1 [Cpd 64, 1-{4-[4-(1H-pyrrolo[2,3-b]pyridin-3-yl)pyrimidin-2-ylamino]piperidin-1-yl}ethanone] | 0.0498 | 10 | 1.68 | 0.136 | 0.0689 | 0.155 |
| CS(=O)(=O)n1cc(-c2ccnc(NC3CCCCC3)n2)c2cccnc21 [Cpd 67, Cyclohexyl-[4-(1-methanesulfonyl-1H-pyrrolo[2,3-b]pyridin-3-yl)pyrimidin-2-yl]-amine] | 0.128 | 1 | 2.36 | 0.393 | 0.298 | 0.504 |

The remaining lines, values ahead:

| IC50 (CDK1:Cyclin-B) [µM] | IC50 (VEGF-R2) [µM] | IC50 (Aurora-A) [µM] | IC50 [1] [µM] | IC50 (HCT-116 colon carcinoma) [µM] | IC50 (A375 malignant melanoma) [µM] | Structure (SMILES) |
| --- | --- | --- | --- | --- | --- | --- |
| 0.0308 | 1 | 0.32 | 0.023 | 0.0129 | 0.0317 | CC(=O)n1cc(-c2ccnc(NC3CCCCC3)n2)c2cccnc21 [Cpd 68, Cyclohexyl-[4-(1-acetyl-1H-pyrrolo[2,3-b]pyridin-3-yl)pyrimidin-2-yl]-amine] |
| 0.6 | 10 | 6.06 | 0.144 | 0.077 | 0.165 | OCCn1cc(-c2ccnc(N[C@H]3CC[C@H](O)CC3)n2)c2cccnc21 [Cpd 72, trans-4-{4-[1-(2-Hydroxyethyl)-1H-pyrrolo[2,3-b]pyridin-3-yl]-pyrimidin-2-ylamino}-cyclohexanol] |
| 0.0028 | 3.57 | 0.374 | 0.00598 | 0.00762 | 0.00616 | OCC[C@H]1CC[C@H](Nc2nccc(-c3c[nH]c4ncccc34)n2)CC1 [Cpd 77, trans-2-{4-[4-(1H-pyrrolo[2,3-b]pyridin-3-yl]-pyrimidin-2-ylamino]-cyclohexyl}-ethanol] |
| 0.00426 | 6.71 | 1.01 | 0.00374 | 0.00313 | 0.00225 | CNCC[C@H]1CC[C@H](Nc2nccc(-c3c[nH]c4ncccc34)n2)CC1 [Cpd 78, trans-[4-(2-Methylaminoethyl)-cyclohexyl]-[4-(1H-pyrrolo[2,3-b]pyridin-3-yl)-pyrimidin-2-yl]-amine] |
